The values below come from ChEMBL document CHEMBL1201862, “PubChem BioAssay data set” (2004).

SMILES strings stand for the structures.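 These data come from cells grown in 96-well plates and exposed to compound for 48 hours at five concentrations. Abbreviation: GI50, concentration required for 50% inhibition of growth.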 Calls of active or inactive are those of the source. Rule as the data show it: active = GI50 up to about 1.1 µM and inactive = higher.

What all share (assay): NCI anticancer screen, dose series, 48 h
The subject of assay [1] is 786-0.
Assay [2] relates to A549.
For assay [3], the system named is ACHN.
In assay [4] the test system is BT-549.
Assay [5] has as its system CCRF-CEM.
Assay [6] deals with HCC 2998.
Assay [7] concerns HL-60.
For assay [8], the system named is HOP-92.
Assay [9] deals with KM12.
For assay [10], the system named is MDA-MB-435.
Assay [11] relates to OVCAR-5.
Assay [12] deals with OVCAR-8.
Assay [13] deals with RXF 393.
Assay [14] concerns SF-539.
For assay [15], the system named is SK-MEL-28.
Assay [16] deals with SNB-19.
Assay [17] relates to SNB-75.
For assay [18], the system named is SR.
Assay [19] concerns T47D.
In assay [20] the test system is UACC-257.

On to `C[C@]12CC[C@@H]3c4cc(OCC(F)(F)F)c(O)cc4CC[C@H]3[C@@H]1CC[C@@H]2O`, for which the GI50 was 3.24 µM (inactive) in assay [1]; 5.41 µM (inactive) in assay [2]; 7.74 µM (inactive) in assay [3]; 18.4 µM (inactive) in assay [4]; 1.51 µM (inactive) in [5]; 5.93 µM (inactive) in assay [6]. The GI50 in [7] is 0.403 µM (active); in assay [8] it was 9.31 µM (inactive); in [9], 4.06 µM (inactive); in [10] it was 0.284 µM (active); in [11], 18.7 µM (inactive); in assay [12], 4.83 µM (inactive). In addition, the GI50 in assay [13] is 1.52 µM (inactive); in assay [14], 1.38 µM (inactive); in [15], 11.8 µM (inactive); in assay [16] it was 2.75 µM (inactive); in assay [17], 1.63 µM (inactive); in [18], 0.335 µM (active). In addition, the results for the GI50 in assay [19] and in [20] were 5.41 µM (inactive) and 7.1 µM (inactive), respectively.

Regarding `CCCCCCCC(=O)OC[n+]1ccc(-c2c(COC(=O)NC(C)C)c(COC(=O)NC(C)C)c3n2CCC3)cc1`, the GI50 in assay [1] was 27 µM (inactive); in assay [2], 63.8 µM (inactive); in assay [3], 20.4 µM (inactive); in assay [4], > 52.7 µM (inactive); in [5], 13.5 µM (inactive); in assay [6], > 100 µM (inactive). The GI50 in assay [7] was 14.8 µM (inactive); in assay [8], 26.4 µM (inactive); in assay [9], > 100 µM (inactive); in assay [10], 69 µM (inactive); in assay [11], > 96.6 µM (inactive); in assay [12], 43.1 µM (inactive). Also, the GI50 is 21.1 µM (inactive) in assay [13]; 23.1 µM (inactive) in [14]; > 100 µM (inactive) in assay [15]; 88.9 µM (inactive) in assay [16]; 42.3 µM (inactive) in assay [17]; 5.65 µM (inactive) in [18]. Also, the results for the GI50 in assay [19] and in [20] were > 64.9 µM (inactive) and 70.6 µM (inactive), respectively.

With `C#CC(O)/C=C/CCCCCCC#CC/C=C\CC#CCCCCCC/C=C/C(O)C#C` (stereo not given), the GI50 in assay [1] was 2.09 µM (inactive); in [2] it was 2.59 µM (inactive); in [3] it was 3.9 µM (inactive); in assay [4] it was 2.86 µM (inactive); in assay [5] it was 0.255 µM (active); in [6] it was 1.8 µM (inactive). Also, the GI50 in [7] is 1.77 µM (inactive); in assay [8], 2.4 µM (inactive); in assay [9] it was 2.32 µM (inactive); in [10], 2.34 µM (inactive); in [11], 2.48 µM (inactive); in assay [12], 3.03 µM (inactive). Moreover, the GI50 in assay [13] is 14.1 µM (inactive); in assay [14], 24.5 µM (inactive); in assay [15], 1.77 µM (inactive); in assay [16], 12.4 µM (inactive); in [17] it was 7.19 µM (inactive); in assay [18], 2.54 µM (inactive). The GI50 in assay [19] is 1.4 µM (inactive); in assay [20] it was 2.39 µM (inactive).
